Key:
Experiment in all cases: Herbicidal efficacy screen, corrected necrosis
Assay type in all cases: in vivo
[1] = test system: Abutilon theophrasti (China Jute)
Method: (§1) Plants were obtained as seeds and were grown to the 2-4 true leaf stage. Plants were grown under laboratory conditions, individually in seed trays. Each plant (in an approximately 3 cm diameter plug) was then detached from the tray for spraying. The compounds were screened at a range of five concentrations, diluted in acetone and Tween™. A carrier only control was also conducted. Treatments were applied directly onto the plants, using a potter tower, at a specified application rate. One plant of each species was sprayed using a potter tower. The 3 different types of plants were placed on a 10 cm diameter platform directly beneath the potter sprayer and sprayed simultaneously. The growth of the plants and any Phytotoxicity effects were then assessed at intervals over 21 days, according to EPPO guideline PP1/135. In the tables below C represents a percentage increase in necrosis relative to the control of 0.1-50; B represents a percentage inhibition of 50-80; and A represents a percentage inhibition of 80-100. Certain compounds of the invention were screened for herbicidal efficacy against target plants: Amaranthus retroflexus (redroot pigweed), Abutilon theophrasti (China Jute): Capsella bursa-pastoris, (shepherd's-purse) Echinochloa crus-galli, Hordeum vulgare (Barley),

[2] = test system: Amaranthus retroflexus (redroot pigweed)
Method: as §1

[3] = test system: Capsella bursa-pastoris, (shepherd's-purse)
Method: as §1

[4] = 6.25 g/ha, day 1 post application
[5] = 6.25 g/ha, day 7 post application
[6] = 12.5 g/ha, day 1 post application
[7] = 12.5 g/ha, day 7 post application
[8] = 25 g/ha, day 1 post application
[9] = 25 g/ha, day 7 post application
[10] = 50 g/ha, day 1 post application
[11] = 50 g/ha, day 7 post application
[12] = 100 g/ha, day 1 post application
[13] = 100 g/ha, day 7 post application

SMILES: CC(C)N(C)S(=O)(=O)NC(=O)c1cc(-n2c(=O)cc(C(F)(F)F)n(C)c2=O)c(F)cc1Cl [Compound 25, 2-Chloro-4-fluoro-N-(isopropyl(methyl)sulfamoyl)-5-[3-methyl-2,6-dioxo-4-(trifluoromethyl)pyrimidin-1-yl]benzamide, reference compound]
- Average of corrected necrosis [1, 4]: C (C represents a percentage increase in necrosis relative to the control of 0.1-50)
- Average of corrected necrosis [1, 5]: A (A represents a percentage inhibition of 80-100)
- Average of corrected necrosis [1, 6]: C (C represents a percentage increase in necrosis relative to the control of 0.1-50)
- Average of corrected necrosis [1, 7]: A (A represents a percentage inhibition of 80-100)
- Average of corrected necrosis [1, 8]: C (C represents a percentage increase in necrosis relative to the control of 0.1-50)
- Average of corrected necrosis [1, 9]: A (A represents a percentage inhibition of 80-100)
- Average of corrected necrosis [1, 10]: C (C represents a percentage increase in necrosis relative to the control of 0.1-50)
- Average of corrected necrosis [1, 11]: A (A represents a percentage inhibition of 80-100)
- Average of corrected necrosis [1, 12]: C (C represents a percentage increase in necrosis relative to the control of 0.1-50)
- Average of corrected necrosis [1, 13]: A (A represents a percentage inhibition of 80-100)
- Average of corrected necrosis [2, 4]: C (C represents a percentage increase in necrosis relative to the control of 0.1-50)
- Average of corrected necrosis [2, 5]: A (A represents a percentage inhibition of 80-100)
- Average of corrected necrosis [2, 6]: C (C represents a percentage increase in necrosis relative to the control of 0.1-50)
- Average of corrected necrosis [2, 7]: A (A represents a percentage inhibition of 80-100)
- Average of corrected necrosis [2, 8]: C (C represents a percentage increase in necrosis relative to the control of 0.1-50)
- Average of corrected necrosis [2, 9]: A (A represents a percentage inhibition of 80-100)
- Average of corrected necrosis [2, 10]: C (C represents a percentage increase in necrosis relative to the control of 0.1-50)
- Average of corrected necrosis [2, 11]: A (A represents a percentage inhibition of 80-100)
- Average of corrected necrosis [2, 12]: C (C represents a percentage increase in necrosis relative to the control of 0.1-50)
- Average of corrected necrosis [2, 13]: A (A represents a percentage inhibition of 80-100)
- Average of corrected necrosis [3, 4]: 0%
- Average of corrected necrosis [3, 5]: A (A represents a percentage inhibition of 80-100)
- Average of corrected necrosis [3, 6]: 0%
- Average of corrected necrosis [3, 7]: A (A represents a percentage inhibition of 80-100)
- Average of corrected necrosis [3, 8]: 0%
- Average of corrected necrosis [3, 9]: A (A represents a percentage inhibition of 80-100)
- Average of corrected necrosis [3, 10]: C (C represents a percentage increase in necrosis relative to the control of 0.1-50)
- Average of corrected necrosis [3, 11]: A (A represents a percentage inhibition of 80-100)
- Average of corrected necrosis [3, 12]: C (C represents a percentage increase in necrosis relative to the control of 0.1-50)
- Average of corrected necrosis [3, 13]: A (A represents a percentage inhibition of 80-100)
